Values joined by “and” are separate entries in the source; they are usually repeats but may differ in a detail not shown here. Identical values can stand only once. Like-named read-outs stand apart in the source and are kept apart here. Where a SMILES comes first, the peptide text is derived from it.
Tests used:
[1] = target: T1, bovine carbonic anhydrase (bCA) (Bos taurus, UniProt P00921); assay: Inhibition of esterase activity (p-nitrophenyl acetate) of purified bCA; format: biochemical; conditions: for IC50 / IC50 bCA: esterase activity method, saturated substrate concentration
T1 construct: from tissue; host or cells: bovine blood hemolysate (erythrocytes are inferred)
Experimental: (§1) The human erythrocyte carbonic anhydrase isozymes hCAI and hCAII were eluted with 50 mM Na2HPO4 ‐ 1 M NaCl, pH: 6.3, and 0.1 M CH3COONa ‐ 0.5 M NaClO4, pH: 5.6, respectively (flow rate: 20 mL/h, fraction volume: 5 mL). The bovine enzyme was eluted with 0.1 M CH3COONa ‐ 0.5 M NaClO4 (pH: 5.6) buffer system. The protein elution by affinity column chromatography was monitored by absorbance measurement at 280 nm.
(§2) Carbonic anhydrase activity was also assayed by following esterase activity according to the method defined by Verpoorte et al. with slight modification. The enzyme hydrolyzes the substrate, p‐nitrophenyl acetate, to p‐nitrophenol or p‐nitrophenolate. The change in absorbance was measured spectrophotometrically at room temperature for a period of 3 min. The reaction mixture contained 0.5 mL of 0.05 M Tris–SO4 buffer (pH: 7.4), 0.75 mL of p‐NPA (3 mM), 0.1 mL of distilled water, and 0.15 mL of the enzyme solution (final volume 1.5 mL). […] All measurements were performed as triplicates. The method was used to determine the inhibitory activities of the food additives studied.
(§3) To determine the effect of all samples on bCA, hCAI, and hCAII isoenzymes esterase activity at saturated substrate concentration, activity (%) ‐ inhibitor concentration [I] graphs were plotted.

[2] = design: method as in Joint FAO/WHO Expert Committee on Food Additives; conditions: NL: not limited; ref Joint FAO/WHO Expert Committee on Food Additives; cited from earlier work
[3] = target: T2, hCAI isoenzyme purified from human erythrocytes (Homo sapiens, UniProt P00915); assay: Inhibition of esterase activity (p-nitrophenyl acetate) of purified hCAI; IC50, Ki, inhibition type; format: biochemical
T2 construct: hCAI isoenzyme purified from human erythrocytes; from tissue; host or cells: human erythrocytes
Experimental: as §1, §2, §3
Lineweaver–Burk lines were drawn for each inhibitor concentration. In the graph equation, Ki values were calculated by using Vmax=V^I max(1 + [I]/Ki) formula for semi‐competitive and Noncompetitive inhibition.

[4] = target: T3, hCAII isoenzyme purified from human erythrocytes (Homo sapiens, UniProt P00918); assay: Inhibition of esterase activity (p-nitrophenyl acetate) of purified hCAII; format: biochemical; conditions: esterase activity method, saturated substrate concentration
T3 construct: […]; from tissue; host or cells: human erythrocytes
Experimental: as §1, §2, §3

[5] = test system: hCAI; design: method as in PMID 27451209; conditions: in vitro; cited from earlier work
[6] = test system: glandular stomach, colon and lungs of mice; design: method as in PMID 20686341; conditions: cited from earlier work
[7] = test system: hCAI; conditions: read-out: IC50(hCAI); cited from earlier work
[8] = test system: hCAII; conditions: read-out: IC50(hCAII); cited from earlier work
[9] = test system: hCAII; conditions: cited from earlier work
[10] = esterase activity method, saturated substrate concentration, read-out: IC50 hCAI

T2 sequence (P00915 whole entry): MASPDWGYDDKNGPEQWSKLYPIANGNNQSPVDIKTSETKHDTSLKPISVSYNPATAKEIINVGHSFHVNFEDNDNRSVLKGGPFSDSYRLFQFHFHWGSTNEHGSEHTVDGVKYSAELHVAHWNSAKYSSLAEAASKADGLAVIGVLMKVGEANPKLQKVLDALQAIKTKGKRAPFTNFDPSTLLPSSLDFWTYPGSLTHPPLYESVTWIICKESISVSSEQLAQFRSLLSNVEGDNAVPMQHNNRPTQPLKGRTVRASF
T1 sequence (P00921 whole entry): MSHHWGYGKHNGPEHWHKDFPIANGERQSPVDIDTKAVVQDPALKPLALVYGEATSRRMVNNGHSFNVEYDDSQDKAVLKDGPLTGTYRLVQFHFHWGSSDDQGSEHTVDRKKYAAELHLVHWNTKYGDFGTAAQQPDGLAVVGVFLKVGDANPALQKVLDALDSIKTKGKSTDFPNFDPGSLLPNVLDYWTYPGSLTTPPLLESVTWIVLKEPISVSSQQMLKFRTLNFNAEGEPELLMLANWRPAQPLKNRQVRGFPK

| Structure (SMILES) | IC50 [3, 10] [µM] | IC50 [4] | IC50 [1] | ADI (acceptable daily intake) [2] [mg/kg] | other results |
| --- | --- | --- | --- | --- | --- |
| CC1=CC(=O)NS(=O)(=O)O1 [Acesulfame K] |  |  | 2350.5 ± 0.1 µM | 15 | inhibition at 2000 µg/mL ([1]; at 2 mg/mL concentration): 13% |
| COc1cc(S(=O)(=O)[O-])c(C)cc1N=Nc1c(O)ccc2cc(S(=O)(=O)[O-])ccc12.[Na+].[Na+] [Allura Red AC] | 781.65 ± 0.06 | 504.04 ± 0.02 µM | 762.12 ± 0.12 µM | 7 | IC50 [5]: 565 µM; DNA damage in in vivo comet assay [6]: DNA damage |
| O=C1O[C@H]([C@@H](O)CO)C(O)=C1O [Ascorbic Acid, Ascorbic acid] | 1834.1 ± 0.1 | 2160.1 ± 0.07 µM | 993.67 ± 0.03 µM |  |  |
| COC(=O)[C@H](Cc1ccccc1)NC(=O)[C@@H](N)CC(=O)O [Aspartame] (HELM PEPTIDE1{D.F.[CO[*:1]]}$$$$V2.0) | 2816.9 ± 0.03 | 2935.8 ± 0.02 µM |  | 40 | IC50 bCA [1]: inactive; IC50 bCA ([1]; listed as aspartame): no effect |
| O=C(O)c1ccccc1 [Benzoic Acid, Benzoic acid] | 2784 ± 0.06 | 2988.8 ± 0.06 µM | 1850.7 ± 0.05 µM | 5 |  |
| CCN(Cc1cccc(S(=O)(=O)[O-])c1)c1ccc(C(=C2C=CC(=[N+](CC)Cc3cccc(S(=O)(=O)[O-])c3)C=C2)c2ccccc2S(=O)(=O)[O-])cc1.[Na+].[Na+] [Brilliant Blue FCF] | 208.04 ± 0.03 | 364.3 ± 0.09 µM | 136.26 ± 0.04 µM | 6 |  |
| O=C(O)CC(O)(CC(=O)O)C(=O)O [Citric Acid] | 1799.4 ± 0.03 | 1241.9 ± 0.07 µM | 616.9 ± 0.1 µM |  |  |
| COc1cc(/C=C/C(=O)CC(=O)/C=C/c2ccc(O)c(OC)c2)ccc1O [Curcumin] |  |  |  |  | IC50 [7]: 5.63 µM; IC50 [8]: 4.81 µM |
| O=C1/C(=C2\Nc3ccc(S(=O)(=O)[O-])cc3C2=O)Nc2ccc(S(=O)(=O)[O-])cc21.[Na+].[Na+] [Indigo Carmine] | 1018.6 ± 0.04 | 242.03 ± 0.03 µM | 141.59 ± 0.07 µM | 5 |  |
| O=C1NS(=O)(=O)c2ccccc21 [Saccharin] | 2049.1 ± 0.1 |  |  | 5 | inhibition against hCAII [9]: low micromolar inhibition |
| C/C=C/C=C/C(=O)O [Sorbic Acid, Sorbic acid] | 4566.2 ± 0.06 | 3475.1 ± 0.1 µM | 1801.4 ± 0.04 µM | 25 |  |

Second part, led by results:

| IC50 [3, 10] [µM] | IC50 [4] | Structure (SMILES) | IC50 [1] | ADI (acceptable daily intake) [2] [mg/kg] | other results |
| --- | --- | --- | --- | --- | --- |
| 496.04 ± 0.04 | 603.11 ± 0.11 µM | O=S(=O)([O-])c1ccc2c(N=Nc3ccc(S(=O)(=O)[O-])c4ccccc34)c(O)c(S(=O)(=O)[O-])cc2c1.[Na+].[Na+].[Na+] [Amaranth] | 296.06 ± 0.06 µM | 0.5 |  |
| 91.14 ± 0.09 | 502.45 ± 0.03 µM | CC(=O)Nc1ccc(S(=O)(=O)[O-])c2cc(S(=O)(=O)[O-])c(N=Nc3ccc(N=Nc4ccc(S(=O)(=O)[O-])cc4)c4ccc(S(=O)(=O)[O-])cc34)c(O)c12.[Na+].[Na+].[Na+].[Na+] [Brilliant Black BN] | 153.32 ± 0.04 µM | 1 |  |
| 462.89 ± 0.1 | 104.29 ± 0.09 µM | Cc1cc(C(C)(C)C)c(O)c(C(C)(C)C)c1 [Butylated Hydroxytoluene (BHT), Butylated hydroxytoluene (BHT)] | 512.85 ± 0.05 µM | 0.3 |  |
| 684 | 581.07 ± 0.03 µM | Cc1c(C(=O)O)c(O)cc2c1C(=O)c1c(O)c([C@@H]3O[C@H](CO)[C@@H](O)[C@H](O)[C@H]3O)c(O)c(O)c1C2=O [Carminic Acid, Carminic acid] | 586.92 ± 0.01 µM | 2.5 |  |
| 19.37 ± 0.04 | 5 µM and 5.22 µM | O=C([O-])c1ccccc1-c1c2cc(I)c(=O)c(I)c-2oc2c(I)c([O-])c(I)cc12.[Na+].[Na+] [Erythrosine B] | 11 µM and 10.8 µM | 0.1 | Type of inhibition ([3]; Lineweaver–Burk): Noncompetitive; IC50 ([3]; Table 3, read-out: IC50 (hCAI esterase activity)): 19 µM; Ki ([3]; [I] 0.015 mM, Lineweaver–Burk, read-out: Ki values): 2.9 µM; Ki ([3]; [I] 0.019 mM, Lineweaver–Burk, read-out: Ki values): 1.7 µM; Ki ([3]; [I] 0.023 mM, Lineweaver–Burk, read-out: Ki values): 3.9 µM; Ki ([3]; three inhibitor concentrations, five substrate concentrations (0.15–0.75 mM), read-out: Average Ki): 2.8 µM |
| 316.98 ± 0.02 | 396.74 ± 0.03 µM | CCN(CC)c1ccc(C(=C2C=CC(=[N+](CC)CC)C=C2)c2cc(O)c(S(=O)(=O)[O-])cc2S(=O)(=O)[O-])cc1.CCN(CC)c1ccc(C(=C2C=CC(=[N+](CC)CC)C=C2)c2cc(O)c(S(=O)(=O)[O-])cc2S(=O)(=O)[O-])cc1.[Ca+2] [Patent Blue V] | 267.46 ± 0.09 µM | 5 |  |
| 678.27 ± 0.03 | 617.09 ± 0.01 µM | O=S(=O)([O-])c1cc(S(=O)(=O)[O-])c2c(N=Nc3ccc(S(=O)(=O)[O-])c4ccccc34)c(O)ccc2c1.[Na+].[Na+].[Na+] [Ponceau 4R, Ponceau 4 R] | 239.84 ± 0.04 µM | 0.7 |  |
| 350.05 ± 0.03 | 488.63 ± 0.07 µM | O=S(=O)([O-])c1ccc(N=Nc2c(O)ccc3cc(S(=O)(=O)[O-])ccc23)cc1.[Na+].[Na+] [Sunset Yellow FCF] | 680.82 ± 0.05 µM | 4 |  |
| 652.25 ± 0.05 | 621.83 ± 0.05 µM | O=C([O-])C1=NN(c2ccc(S(=O)(=O)[O-])cc2)C(=O)C1N=Nc1ccc(S(=O)(=O)[O-])cc1.[Na+].[Na+].[Na+] (centres unmarked) [Tartrazine] | 659.67 ± 0.07 µM | 7.5 |  |

Reference: paper PMC12361874, “Common Food Additives Inhibit Carbonic Anhydrase Activity” (Journal of Biochemical and Molecular Toxicology, 2025)
